Results reported in paper PMC3433414, “Oral Administration of the Pimelic Diphenylamide HDAC Inhibitor HDACi 4b Is Unsuitable for Chronic Inhibition of HDAC Activity in the CNS In Vivo” (PLoS ONE, 2012).
Read-outs that look alike come from different tables or passages of the source.

Columns and labels:
[1] = Pharmacokinetics after a single SC or PO dose; type: in vivo, mouse; details: for Tmax: read-out: Observed Tmax
Protocol: The pharmacokinetic parameters of 4b following dosing with either 5 mg/kg subcutaneous (sc) injection using the soluble formulation, or 4b per oral (po) by gavage (50 mg/kg in suspension) in mice plasma and whole brain homogenate are shown in Fig. 4 and Table 1. Triplicate dose formulation samples were retained and analyzed to ensure an accurate concentration of 4b was injected. The sc dose was calculated to be on average 84.3% of the 5 mg/kg target dose. Therefore, for PK analysis purposes, the dose level for this group was adjusted to 4.22 mg eq./kg based on the reported average dose formulation concentration and calculation parameters were adjusted accordingly. The po gavage dose was accurate at 50 mg/kg (within 104% of the nominal concentration of 10.0 mg/mL), and triplicate sampling from the vial (1 per strata; top, middle, and bottom) confirmed that the suspension dosed was homogeneous.
All dose formulation procedures were conducted under yellow lighting conditions to protect 4b from light. For the subcutaneous dose group, 2.504 mg 4b was weighed, and transferred into a formulation container. NMP (0.05 mL) was added and the contents were vortexed until 4b was completely dissolved. With continuous vortexing after each addition, PEG400 (0.45 mL), Solutol HS-15 (0.25 mL) and finally 1% Lutrol F68 in RODI water (1.75 mL) followed by sonication for 6 min. The formulation was filtered into a sterile serum vial using a 0.22 µm Millex GV PVDF filter. The resultant formulation was a clear colorless solution.
For the oral dose group, 4b was weighed (21.138 mg) and transferred to a formulation container. The prepared vehicle (0.5% CMC, 2.11 mL) was transferred into the formulation container, and the contents were stirred and sonicated for a total of 20 min. The resultant formulation was a white homogenous suspension.
Whole blood samples (225 µL each ∼90 µL plasma) were collected at each time point per animal into tubes containing K2EDTA. Samples were held on wet ice prior to centrifugation. Mice were bled twice; the first bleed was made via the submandibular facial vein, the second bleed was a terminal collection via cardiac puncture. […] The entire volume of the plasma sample was then transferred to individual tubes contained in a 96-well Matrix plate kept chilled in icy water through the entire process until storage at −70°C ±10°C. Collected plasma samples were stored at −70°C ±10°C until transferred to the analytical laboratory frozen on dry ice for bioanalysis.
The brain of each animal was collected following CO2 euthanasia and terminal bleeding. Each brain was rinsed with saline once removed from the body (to flush away any blood that may have been present), snap frozen in liquid nitrogen, and stored individually in 15 mL conical tubes at −70°C ±10°C.
Prior to extraction, acetonitrile: water (3∶1, v/v) was added to each tissue sample at a tissue: solvent ratio of 1∶3 (w/v) or 1∶2.536 (w/w), and homogenized using an OMNI tissue homogenizer. The actual volume of extraction buffer or organic solvent added to each tissue was recorded. Samples were kept chilled in icy water through the entire process until processed for 4b extraction. Immediately prior to extraction, tissue homogenates were thoroughly vortexed and aliquoted into 96-well plate(s). The entire process, from tissue homogenization to placing the samples in the tubes for 4b extraction, was conducted within 8 h.
primary stock solution was prepared at 1 mg eq./mL in DMSO. The matrix calibration standards were prepared at 1, 2, 5, 10, 50, 250, 1000, 2500, 5000 and 10000 ng eq./mL in mouse plasma for plasma, and 0.25, 0.5, 1.25, 2.5, 12.5, 62.5, 250, 625, 1250, 2500 ng eq./mL in tissue homogenate for tissue analysis. Plasma samples were quantified against an external calibration curve generated in control plasma from male C57BL/6NCRL mice. Tissue samples were quantified against an external calibration standard curve generated in control brain tissue from male C57BL/6NCRL mice. […]

[2] = Permeability in MDCK cells; type: in vitro ADME; details: dog, pH 7.4
Protocol: The MDR1-MDCKII and wild type MDCKII cell lines (obtained from SOLVO Biotechnology) were cultured in accordance with the guidelines provided by SOLVO Biotechnology. Both wild-type MDCK and MDR1-MDCK cells were seeded at a cell density of 2.3×10^5 cells/well into 24-well Transwell plates and cultured for three days to form monolayers. Test compound was loaded into the donor compartments of the Transwell plate (24-well) bearing MDR1-MDCK or wild type MDCK monolayers. Test compound was added to either the apical or basolateral chambers of the Transwell plate assembly at a concentration of 10 µM in Hanks’ Balanced Salt Solution containing 25 mM HEPES (pH 7.4). Lucifer Yellow was added to the apical buffer in all wells and its permeation monitored to assess integrity of the cell layer. […] Concentrations of compound in the samples were measured by LC-MS/MS. Concentrations of LY in the samples were measured using a fluorescence plate reader. The apparent permeability (Papp) values of test compound were determined for both the apical to basal (A>B) and basal to apical (B>A) permeation and the efflux ratio (B>A: A>B) determined in both the wild type MDCK and MDR1-MDCK cells. Apparent permeability (Papp) values were calculated from the relationship: [drawing 5] […]

[3] = C57BL/6NCRL, mouse, brain/plasma, po 50 mg eq./kg, mean (standard deviation), N = 3, read-out: B:P
[4] = C57BL/6NCRL, mouse, brain/plasma, sc 4.22 mg eq./kg, mean (standard deviation), N = 3, read-out: B:P

Nc1ccccc1NC(=O)CCCCCC(=O)Nc1ccccc1 [Compound 4b]
brain concentration in the acute sc pharmacodynamic trial, fold higher than by oral dosing ([1]; 150 mg/kg): ~65 fold | AUC(0-inf) ([1]; C57BL/6NCRL, mouse, 4.22 mg/kg, mice, SC 4.22 mg eq./kg, plasma): 1.63 µM·h | half-life ([1]; C57BL/6NCRL, mouse, 4.22 mg/kg, mice, SC 4.22 mg eq./kg, plasma, read-out: T1/2 (converted)): 39.6 min | AUC(0-inf) ([1]; C57BL/6NCRL, mouse, 50 mg/kg, mice, PO 50 mg eq./kg, brain): 0.129 µM·h | half-life ([1]; C57BL/6NCRL, mouse, 50 mg/kg, mice, PO 50 mg eq./kg, brain, read-out: T1/2 (converted)): 182 min | AUC(0-inf) ([1]; C57BL/6NCRL, mouse, 50 mg/kg, mice, PO 50 mg eq./kg, plasma): 1.08 µM·h | half-life ([1]; C57BL/6NCRL, mouse, 50 mg/kg, mice, PO 50 mg eq./kg, plasma, read-out: T1/2 (converted)): 166 min | Cmax ([1]; C57BL/6NCRL, mouse, brain, po, 50 mg/kg, mice, PO 50 mg eq./kg, brain, read-out: Observed Cmax): 24 nM | Tmax ([1]; C57BL/6NCRL, mouse, brain, po, 50 mg/kg, mice, PO 50 mg eq./kg, brain): 60 min | Cmax ([1]; C57BL/6NCRL, mouse, brain, sc, 4.22 mg/kg, mice, SC 4.22 mg eq./kg, brain, read-out: Observed Cmax): 134 nM | Tmax ([1]; C57BL/6NCRL, mouse, brain, sc, 4.22 mg/kg, mice, SC 4.22 mg eq./kg, brain): 30 min | Kp at 0.5 hr [1, 3]: 0.05 | Kp at 1 hr [1, 3]: 0.08 | Kp at 8 hr ([1]; C57BL/6NCRL, mouse, brain/plasma, po 50 mg eq./kg, 8 hr, mean (standard deviation), N = 3, read-out: B:P): 0.2 | Kp at 0.5 hr [1, 4]: 0.09 | Kp at 1 hr [1, 4]: 0.06 | AUC ([1]; C57BL/6NCRL, mouse, plasma, 50 mg/kg, mice, po 50 mg eq/kg): 1.08 µM·h | Cmax ([1]; C57BL/6NCRL, mouse, plasma, po, 50 mg/kg, mice, PO 50 mg eq./kg, plasma, read-out: Observed Cmax): 1130 nM | Tmax ([1]; C57BL/6NCRL, mouse, plasma, po, 50 mg/kg, mice, PO 50 mg eq./kg, plasma): ≤ 30 min | Cmax ([1]; C57BL/6NCRL, mouse, plasma, po, 50 mg/kg, mice, po 50 mg eq/kg, read-out: plasma Cmax): 1300 nM | half-life ([1]; C57BL/6NCRL, mouse, plasma, sc, 4.22 mg eq./kg, after subcutaneous dosing, read-out: plasma half-life): ~40 min | Cmax ([1]; C57BL/6NCRL, mouse, plasma, sc, 4.22 mg/kg, mice, SC 4.22 mg eq./kg, plasma, read-out: Observed Cmax): 1340 nM | Tmax ([1]; C57BL/6NCRL, mouse, plasma, sc, 4.22 mg/kg, mice, SC 4.22 mg eq./kg, plasma): ≤ 30 min | Cmax ([1]; C57BL/6NCRL, mouse, plasma, sc, 4.22 mg/kg, mice, sc 4.22 mg/kg, read-out: plasma Cmax): 1340 nM | AUC ([1]; C57BL/6NCRL, mouse, plasma, mice, sc 4.22 mg/kg): 1.63 µM·h | estimated brain Cmax ([1]; extrapolated to 150 mg/kg s.c., assuming linear kinetics): 4000 to 5000 nM | estimated brain Cmax ([1]; extrapolated to oral bolus of 150 mg/kg): ~72 nM | Cmax ([1]; mice, PO 50 mg eq./kg, brain, read-out: Observed Cmax): 24.3 nM | brain concentration (below LLQ) ([1]; po 50 mg/kg, after 8 h): < 2.3 nM eq. | plasma concentration (below LLQ) ([1]; po 50 mg/kg, after 8 h): < 3.07 nM eq. | plasma concentration (below LLQ) ([1]; sc 4.22 mg/kg eq, after 4 h): < 3.07 nM eq. | brain concentration (below LLQ) ([1]; sc 4.22 mg/kg eq, after 8 h): < 2.3 nM eq. | Papp A→B at 1 h, 10 µM [2]: 10.8 ×10⁻⁶ cm/s
